Among the data in patent publication US20050038047A1, “Azaquinazoline derivatives” (priority 2003, published 2005) are Ki values, retold here.

The experiment concerns the target T1, rat mGluR1a receptor (Rattus norvegicus, UniProt P23385).
T1 construct: expressed in transfected cells; host or cells: Chinese Hamster Ovary cells (CHO-1a), stably transfected
Description: mGluR1 assay: antagonism of glutamate-evoked calcium internalisation in CHO-1a cells (FLIPr). The experiment is classed as cell-based. As to conditions: CHO cells stably transfected with rat mGluR1a; 40 μM glutamate challenge; IC50 values converted to modified Ki values; read-out: binding affinities (mGluR1 assay). The protocol: The ability of compounds of formula (I) to antagonise glutamate-evoked increases in calcium internalisation in an mGluR1 expressing cell line may be measured using the assay described below.
Chinese Hamster Ovary cells stably-transfected with the rat mGluR1a receptor (CHO-1a) were used in the assay. CHO-1a cells were seeded onto shallow 96 well plates and assayed at a confluency of 80-90%. Cells were loaded with Fluo-3-AM dye (8.8 μM final concentration; excitation 488 nm, emission 530 nm) in the presence of probenecid (2.5 mM), for 45-90 minutes at 37° C., after which time excess dye was removed by washing. The cell plate was then loaded onto a fluorometric imaging plate reader (FLIPr, Molecular Devices). Baseline readings were measured for 30 seconds. Test compounds were added by the FLIPr and allowed to equilibrate for 5 minutes before the addition of a 40 μM glutamate challenge (this was the approximate ED90 for glutamate against the receptor expressed in these cells). Readings were taken for a further 2 minutes. Measurements were made of the area of peak obtained in response to the glutamate addition and inhibition curves were constructed. Glutamate dose-response curves were included on each experimental day to allow IC50 values to be converted to modified Ki values.

T1 sequence (P23385 19-1199): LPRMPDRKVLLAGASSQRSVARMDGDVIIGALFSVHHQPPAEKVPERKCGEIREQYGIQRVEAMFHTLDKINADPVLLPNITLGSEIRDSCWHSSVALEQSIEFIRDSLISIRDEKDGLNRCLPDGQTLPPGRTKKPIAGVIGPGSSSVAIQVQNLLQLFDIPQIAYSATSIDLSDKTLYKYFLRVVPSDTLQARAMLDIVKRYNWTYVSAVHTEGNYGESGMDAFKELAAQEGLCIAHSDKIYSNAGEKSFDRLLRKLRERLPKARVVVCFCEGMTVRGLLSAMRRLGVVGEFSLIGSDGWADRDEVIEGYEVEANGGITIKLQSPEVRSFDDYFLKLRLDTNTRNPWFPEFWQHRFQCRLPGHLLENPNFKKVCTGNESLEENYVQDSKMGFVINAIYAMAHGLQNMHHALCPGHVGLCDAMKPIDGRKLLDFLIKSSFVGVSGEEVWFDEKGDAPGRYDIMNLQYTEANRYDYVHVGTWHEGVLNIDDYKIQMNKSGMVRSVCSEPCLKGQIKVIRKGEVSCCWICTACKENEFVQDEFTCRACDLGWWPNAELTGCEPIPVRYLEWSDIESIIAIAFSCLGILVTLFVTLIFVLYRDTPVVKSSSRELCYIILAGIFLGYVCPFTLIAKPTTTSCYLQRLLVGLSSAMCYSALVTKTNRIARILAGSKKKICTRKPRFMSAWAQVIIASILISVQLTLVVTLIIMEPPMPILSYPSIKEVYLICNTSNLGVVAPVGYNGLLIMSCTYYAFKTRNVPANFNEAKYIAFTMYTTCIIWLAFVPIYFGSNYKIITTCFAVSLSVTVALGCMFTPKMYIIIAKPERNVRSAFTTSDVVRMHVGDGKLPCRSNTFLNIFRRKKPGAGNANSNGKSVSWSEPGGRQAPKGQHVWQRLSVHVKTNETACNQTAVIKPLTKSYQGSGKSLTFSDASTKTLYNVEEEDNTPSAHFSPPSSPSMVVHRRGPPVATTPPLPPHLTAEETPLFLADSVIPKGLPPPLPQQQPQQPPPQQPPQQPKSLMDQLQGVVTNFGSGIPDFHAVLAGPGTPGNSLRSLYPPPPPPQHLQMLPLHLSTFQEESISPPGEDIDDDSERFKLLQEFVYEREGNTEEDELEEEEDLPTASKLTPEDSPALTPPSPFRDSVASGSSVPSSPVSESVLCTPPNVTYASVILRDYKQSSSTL

`OC1CCN(c2cc3c(NC4CCCCCC4)ncnc3cn2)CC1` [Example 1, 1-(4-Cycloheptylamino-pyrido[3,4-d]pyrimidin-6-yl)-piperidin-4-ol]: the Ki is 3 nM.
For the molecule `OCCCNc1cc2c(NC3CCCCCC3)ncnc2cn1` [Example 3], the Ki was 2 nM.
